Assay results: ChEMBL document CHEMBL1201862, “PubChem BioAssay data set” (2004)
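Growth conditions: 96-well plates. Treatment: test compound, 48 hours, 5 concentrations. Analysis: linear interpolation between bracketing concentrations; unreached endpoints set to highest concentration. Here, GI50 denotes the concentration required for 50% inhibition of growth.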 Activity calls are given as the source filed them. Rule as the data show it: active = GI50 up to about 1.1 µM and inactive = higher.

Experiments:
Test in all cases: DTP human tumour cell line panel, 48 h
786-0 = tested on: 786-0
PC-3 = tested on: PC-3
SR = tested on: SR
SNB-19 = tested on: SNB-19
TK-10 = tested on: TK-10
M14 = tested on: M14
SNB-75 = tested on: SNB-75
HCT-15 = tested on: HCT-15
UO-31 = tested on: UO-31
NCI-H460 = tested on: NCI-H460
HOP-92 = tested on: HOP-92
SF-268 = tested on: SF-268
OVCAR-4 = tested on: OVCAR-4
CCRF-CEM = tested on: CCRF-CEM
U-251 = tested on: U-251
MDA-N = tested on: MDA-N
DU-145 = tested on: DU-145
EKVX = tested on: EKVX
Malme-3M = tested on: Malme-3M
OVCAR-8 = tested on: OVCAR-8
NCI-H23 = tested on: NCI-H23
SF-539 = tested on: SF-539
A498 = tested on: A498
SW-620 = tested on: SW-620
HOP-62 = tested on: HOP-62
T47D = tested on: T47D
LOX IMVI = tested on: LOX IMVI
SN12C = tested on: SN12C
HT-29 = tested on: HT-29
HL-60 = tested on: HL-60
ACHN = tested on: ACHN
IGROV-1 = tested on: IGROV-1
SK-MEL-5 = tested on: SK-MEL-5
MCF7 = tested on: MCF7
UACC-257 = tested on: UACC-257
K562 = tested on: K562
CAKI-1 = tested on: CAKI-1
OVCAR-3 = tested on: OVCAR-3
NCI/ADR-RES = tested on: NCI/ADR-RES
OVCAR-5 = tested on: OVCAR-5
SK-OV-3 = tested on: SK-OV-3
KM12 = tested on: KM12
Hs-578T = tested on: Hs-578T
COLO 205 = tested on: COLO 205
MDA-MB-231 = tested on: MDA-MB-231
MOLT-4 = tested on: MOLT-4
HCC 2998 = tested on: HCC 2998
RPMI-8226 = tested on: RPMI-8226
HCT-116 = tested on: HCT-116
SK-MEL-2 = tested on: SK-MEL-2
SF-295 = tested on: SF-295
SK-MEL-28 = tested on: SK-MEL-28
A549 = tested on: A549
MDA-MB-435 = tested on: MDA-MB-435
RXF 393 = tested on: RXF 393
NCI-H226 = tested on: NCI-H226
UACC-62 = tested on: UACC-62
NCI-H522 = tested on: NCI-H522
BT-549 = tested on: BT-549

## O=C(Nc1cccc(C(F)(F)F)c1)O/N=C(/Cl)CCl
786-0
  GI50: 40.5 µM (inactive)
PC-3
  GI50: 96.6 µM (inactive)
SR
  GI50: 22.6 µM (inactive)
SNB-19
  GI50: > 100 µM (inactive)
TK-10
  GI50: > 100 µM (inactive)
M14
  GI50: > 100 µM (inactive)
SNB-75
  GI50: > 100 µM (inactive)
HCT-15
  GI50: 46.3 µM
UO-31
  GI50: > 100 µM (inactive)
NCI-H460
  GI50: > 100 µM (inactive)
HOP-92
  GI50: 22 µM (inactive)
SF-268
  GI50: > 100 µM (inactive)
OVCAR-4
  GI50: 63.2 µM (inactive)
CCRF-CEM
  GI50: 30.2 µM (inactive)
U-251
  GI50: 39.5 µM (inactive)
MDA-N
  GI50: 71.8 µM (inactive)
DU-145
  GI50: > 100 µM (inactive)
EKVX
  GI50: > 100 µM (inactive)
Malme-3M
  GI50: > 100 µM (inactive)
OVCAR-8
  GI50: > 100 µM (inactive)
NCI-H23
  GI50: 47.3 µM (inactive)
SF-539
  GI50: > 100 µM (inactive)
A498
  GI50: > 100 µM (inactive)
SW-620
  GI50: 38.5 µM (inactive)
HOP-62
  GI50: > 100 µM (inactive)
T47D
  GI50: 53.5 µM (inactive)
LOX IMVI
  GI50: 19 µM (inactive)
SN12C
  GI50: 56 µM (inactive)
HT-29
  GI50: 51.9 µM (inactive)
HL-60
  GI50: 16.8 µM (inactive)
ACHN
  GI50: > 100 µM (inactive)
IGROV-1
  GI50: 62.4 µM (inactive)
SK-MEL-5
  GI50: 40.7 µM (inactive)
MCF7
  GI50: 21.6 µM (inactive)
UACC-257
  GI50: > 100 µM (inactive)
K562
  GI50: 29.6 µM (inactive)
CAKI-1
  GI50: > 100 µM (inactive)
OVCAR-3
  GI50: 38.9 µM (inactive)
NCI/ADR-RES
  GI50: > 100 µM (inactive)
OVCAR-5
  GI50: 21.8 µM (inactive)
SK-OV-3
  GI50: > 100 µM (inactive)
KM12
  GI50: > 100 µM (inactive)
Hs-578T
  GI50: > 100 µM (inactive)
COLO 205
  GI50: 67.5 µM (inactive)
MDA-MB-231
  GI50: 17.1 µM (inactive)
MOLT-4
  GI50: 28.2 µM (inactive)
HCC 2998
  GI50: > 100 µM (inactive)
RPMI-8226
  GI50: 27 µM (inactive)
HCT-116
  GI50: 55.7 µM (inactive)
SK-MEL-2
  GI50: 67.6 µM (inactive)
SF-295
  GI50: 49.5 µM (inactive)
SK-MEL-28
  GI50: 41.5 µM (inactive)
A549
  GI50: > 100 µM (inactive)

## CCOC(=O)c1sc2c(c1OC(=O)c1ccco1)c(=O)n(-c1ccccc1)c(=S)n2-c1ccccc1
786-0
  GI50: 28.9 µM (inactive)
PC-3
  GI50: 21.4 µM (inactive)
SNB-19
  GI50: 33.2 µM (inactive)
TK-10
  GI50: 39.1 µM (inactive)
M14
  GI50: 28.2 µM (inactive)
SNB-75
  GI50: 25.9 µM (inactive)
HCT-15
  GI50: 32.1 µM
UO-31
  GI50: 1.04 µM (active)
NCI-H460
  GI50: 17.7 µM (inactive)
HOP-92
  GI50: 30.2 µM (inactive)
SF-268
  GI50: 46.1 µM (inactive)
OVCAR-4
  GI50: 26.8 µM (inactive)
CCRF-CEM
  GI50: 35.8 µM (inactive)
U-251
  GI50: 35.5 µM (inactive)
MDA-N
  GI50: 41.7 µM (inactive)
DU-145
  GI50: 52.6 µM (inactive)
EKVX
  GI50: 21.3 µM (inactive)
Malme-3M
  GI50: 15.8 µM (inactive)
OVCAR-8
  GI50: 26.1 µM (inactive)
MDA-MB-435
  GI50: 28.1 µM (inactive)
NCI-H23
  GI50: 28.7 µM (inactive)
SF-539
  GI50: 30.7 µM (inactive)
A498
  GI50: 23 µM (inactive)
SW-620
  GI50: 42.1 µM (inactive)
HOP-62
  GI50: 32.1 µM (inactive)
T47D
  GI50: 65.6 µM (inactive)
LOX IMVI
  GI50: 25.6 µM (inactive)
SN12C
  GI50: 23.7 µM (inactive)
HT-29
  GI50: 55.2 µM (inactive)
RXF 393
  GI50: 22.1 µM (inactive)
HL-60
  GI50: 24.9 µM (inactive)
ACHN
  GI50: 27.5 µM (inactive)
IGROV-1
  GI50: 17.9 µM (inactive)
SK-MEL-5
  GI50: 15.8 µM (inactive)
MCF7
  GI50: 41.3 µM (inactive)
UACC-257
  GI50: 90.2 µM (inactive)
NCI-H226
  GI50: 22.1 µM (inactive)
K562
  GI50: 30.4 µM (inactive)
CAKI-1
  GI50: 34.3 µM (inactive)
OVCAR-3
  GI50: 26.5 µM (inactive)
NCI/ADR-RES
  GI50: 21.4 µM (inactive)
OVCAR-5
  GI50: > 100 µM (inactive)
SK-OV-3
  GI50: > 100 µM (inactive)
KM12
  GI50: 33.4 µM (inactive)
Hs-578T
  GI50: 27.5 µM (inactive)
COLO 205
  GI50: 19.1 µM (inactive)
MDA-MB-231
  GI50: 28.1 µM (inactive)
MOLT-4
  GI50: 17.2 µM (inactive)
HCC 2998
  GI50: 31.4 µM (inactive)
RPMI-8226
  GI50: 30.6 µM (inactive)
HCT-116
  GI50: 29.7 µM (inactive)
UACC-62
  GI50: 26.2 µM (inactive)
NCI-H522
  GI50: > 100 µM (inactive)
SF-295
  GI50: > 100 µM (inactive)
SK-MEL-28
  GI50: 60.5 µM (inactive)
A549
  GI50: 38.6 µM (inactive)

## Cn1c(=O)c2nc(/N=N/Nc3nncs3)[nH]c2n(C)c1=O
786-0
  GI50: > 100 µM (inactive)
PC-3
  GI50: > 100 µM (inactive)
SNB-19
  GI50: > 100 µM (inactive)
TK-10
  GI50: > 100 µM (inactive)
M14
  GI50: > 100 µM (inactive)
HCT-15
  GI50: > 100 µM
UO-31
  GI50: > 100 µM (inactive)
NCI-H460
  GI50: > 100 µM (inactive)
HOP-92
  GI50: > 100 µM (inactive)
SF-268
  GI50: > 100 µM (inactive)
OVCAR-4
  GI50: > 100 µM (inactive)
CCRF-CEM
  GI50: > 100 µM (inactive)
U-251
  GI50: > 100 µM (inactive)
DU-145
  GI50: > 100 µM (inactive)
EKVX
  GI50: > 100 µM (inactive)
OVCAR-8
  GI50: > 100 µM (inactive)
MDA-MB-435
  GI50: > 100 µM (inactive)
NCI-H23
  GI50: > 100 µM (inactive)
SF-539
  GI50: > 100 µM (inactive)
A498
  GI50: > 100 µM (inactive)
SW-620
  GI50: > 100 µM (inactive)
HOP-62
  GI50: > 100 µM (inactive)
T47D
  GI50: > 100 µM (inactive)
LOX IMVI
  GI50: > 100 µM (inactive)
SN12C
  GI50: > 100 µM (inactive)
HT-29
  GI50: > 100 µM (inactive)
RXF 393
  GI50: > 100 µM (inactive)
ACHN
  GI50: > 100 µM (inactive)
IGROV-1
  GI50: > 100 µM (inactive)
SK-MEL-5
  GI50: > 100 µM (inactive)
MCF7
  GI50: > 100 µM (inactive)
UACC-257
  GI50: > 100 µM (inactive)
K562
  GI50: > 100 µM (inactive)
CAKI-1
  GI50: > 100 µM (inactive)
OVCAR-3
  GI50: > 100 µM (inactive)
NCI/ADR-RES
  GI50: > 100 µM (inactive)
OVCAR-5
  GI50: > 100 µM (inactive)
SK-OV-3
  GI50: > 100 µM (inactive)
KM12
  GI50: > 100 µM (inactive)
Hs-578T
  GI50: > 100 µM (inactive)
COLO 205
  GI50: > 100 µM (inactive)
BT-549
  GI50: > 100 µM (inactive)
MDA-MB-231
  GI50: > 100 µM (inactive)
MOLT-4
  GI50: > 100 µM (inactive)
HCC 2998
  GI50: > 100 µM (inactive)
HCT-116
  GI50: > 100 µM (inactive)
SK-MEL-2
  GI50: > 100 µM (inactive)
UACC-62
  GI50: > 100 µM (inactive)
SF-295
  GI50: > 100 µM (inactive)
SK-MEL-28
  GI50: > 100 µM (inactive)
A549
  GI50: > 100 µM (inactive)
